The target of one data set is T1, Aβ1-42 (Homo sapiens, UniProt P05067).
T1 construct: Aβ1-42 peptides were purchased from Kelowna International Scientific Inc; purchased Kelowna International Scientific Inc
Briefly: Inhibition of Aβ1-42 self-aggregation, thioflavin-T (ThT) fluorescence assay. It counts as biochemical. The note with it: 24 h; for IC50: read-out: Beta-Amyloid Aggregation IC50; for inhibition at 10 µM: single concentration of 10 μM, read-out: Beta-Amyloid Aggregation Inhibition (%). The protocol:
Inhibition of Aβ1-42 self-aggregation was measured by thioflavin-T (ThT) fluorescence assay ([Hudson et al., 2009]). Aβ1-42 peptides were purchased from Kelowna International Scientific Inc. To avoid Aβ1-42 self-aggregation before the start of the experiment, Aβ1-42 peptides were dissolved in hexafluoroisopropanol (HFIP) to a concentration of 1 mM. The clear solution containing the dissolved peptide was then aliquoted in micro centrifuge tube. The solution was evaporated under vacuum to remove HFIP to give monomeric Aβ1-42. The monomeric Aβ1-42 was dissolved in NaOH(aq) (60 mM) to give a stock solution (1 mM). The Aβ1-42 stock solution was diluted with 50 mM phosphate buffer (containing 0.15 M NaCl, pH 7.4) before use. Fresh ThT stock solution was prepared by dissolving ThT (Sigma, T3516) in phosphate buffer and filtrated through […] Nylon syringe filter. The ThT stock solution and 400 mM ethylenediaminetetraacetic acid (EDTA) were diluted into the phosphate buffer to generate the working solution as background. A mixture of working solution (ThT final concentration: 10 μM), Aβ1-42 stock solution (Aβ1-42 final concentration: 10 μM) and the tested compounds were incubated on BioShake iQ ThermoMixer (37°C, 700 rpm) for 24 h. Fluorescence was measured by Victor 2X microplate spectrophotometer (excitation λ = 440 nm, emission λ = 486 nm), and adapted for 96-well microtiter plates. The fluorescence intensities were recorded and the percent inhibition due to the presence of the inhibitors were calculated by the following formula: (1 - IFi/IFc) × 100% where IFi and IFc were the fluorescence intensities obtained for Aβ1-42 in the presence and in the absence of inhibitors after subtracting the background, respectively. The IC50 values were calculated by the linear regression model of the data. All experiments were performed in triplicate.

Data set [1] deals with primary rat mesencephalic neurons. The arrangement: method as in Luchtman et al., 2013. Conditions: 100 μM; ref Luchtman et al., 2013; cited from earlier work.
The test system of the next data set is SH-SY5Y cells. The note with it: 100 μM; ref Luchtman et al., 2013; cited from earlier work.

T1 sequence (P05067 672-713 limits assumed): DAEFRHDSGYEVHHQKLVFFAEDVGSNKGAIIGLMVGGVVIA

What is called IC50 is the concentration needed to halve the response being measured. For orientation: inhibition means the relative decrease from the control value, in per cent. For the compound `O=C(CCCCCCC(=O)Nc1ccccc1)NO` [SAHA, suberoylanilide hydroxamic acid, reference compound], on Aβ1-42, the IC50 is greater than 10 µM and the inhibition at 10 µM is -13.3 ± 1.8%.
Turning to `C[n+]1ccc(-c2ccccc2)cc1.[I-]` [1-methyl-4-phenylpyridinium iodide], the “Viability of primary rat mesencephalic neurons” value in data set [1] was “roughly 75%”. Moreover, in the data set with SH-SY5Y cells, the “Cell viability of SH-SY5Y cells” value is recorded as 80%.
Turning to `O=c1c(O)c(-c2ccc(O)cc2O)oc2cc(O)cc(O)c12` [Morin, morin, reference compound], at Aβ1-42, the IC50 was 8.8 ± 0.7 µM and the inhibition at 10 µM stood at 56.9 ± 5.9%.

The values above are taken from article PMC6037852, “Design of Diarylheptanoid Derivatives as Dual Inhibitors Against Class IIa Histone Deacetylase and β-amyloid Aggregation” (Frontiers in Pharmacology, 2018).
